The source of these data is patent US8309730B2, “Nonsteroidal compounds useful as modulators of glucocorticoid receptor AP-1 and/or NF-kappab acitivity and use thereof” (Bristol-Myers Squibb Company, priority 2007, dated 2012).

Structures are written as SMILES. Some results are limits rather than exact numbers.

The target of this experiment is T1, human glucocorticoid receptor (Homo sapiens, UniProt P04150).
T1 construct: purified human recombinant full-length glucocorticoid receptor (2 nM); purchased Invitrogen Part #2893
T1 sequence (P04150 1-777): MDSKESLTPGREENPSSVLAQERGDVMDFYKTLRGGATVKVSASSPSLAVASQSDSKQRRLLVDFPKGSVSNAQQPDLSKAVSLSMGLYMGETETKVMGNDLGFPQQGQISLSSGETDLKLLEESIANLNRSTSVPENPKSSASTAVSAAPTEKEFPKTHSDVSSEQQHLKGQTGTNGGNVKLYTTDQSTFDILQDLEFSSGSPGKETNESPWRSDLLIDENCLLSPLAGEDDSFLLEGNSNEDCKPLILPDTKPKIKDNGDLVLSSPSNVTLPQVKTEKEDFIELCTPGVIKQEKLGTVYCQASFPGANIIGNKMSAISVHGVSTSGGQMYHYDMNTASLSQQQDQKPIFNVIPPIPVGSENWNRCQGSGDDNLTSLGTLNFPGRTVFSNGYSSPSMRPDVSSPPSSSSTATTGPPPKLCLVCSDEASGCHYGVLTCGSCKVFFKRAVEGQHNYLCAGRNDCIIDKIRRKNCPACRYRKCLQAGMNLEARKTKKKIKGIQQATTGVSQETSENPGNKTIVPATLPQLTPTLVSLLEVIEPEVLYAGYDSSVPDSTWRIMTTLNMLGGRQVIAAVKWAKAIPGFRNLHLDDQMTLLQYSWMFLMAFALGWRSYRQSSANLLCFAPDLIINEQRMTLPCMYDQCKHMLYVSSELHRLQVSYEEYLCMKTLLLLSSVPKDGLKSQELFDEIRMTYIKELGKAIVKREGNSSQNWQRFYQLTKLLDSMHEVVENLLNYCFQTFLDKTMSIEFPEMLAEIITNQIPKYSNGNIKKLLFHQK
The experiment can be described thus: Glucocorticoid Receptor Binding Assay (I), fluorescence polarization competitor kit. To be noted: purified human recombinant full-length GR, Fluormone GS Red, 2 h room temperature. The procedure:
Briefly, purified human recombinant full-length glucocorticoid receptor (2 nM) was mixed with fluorescently labeled glucocorticoid (1 nM Fluormone GS Red) in the presence or absence of test compound. After two hours incubation at room temperature in the dark, the fluorescence polarization (FP) of the sample was measured. […] Test compounds were analyzed in the concentration range from 8.5E-05 μM to 5 μM.
Consider `C[C@]12Cn3cnc(-c4ccccc4)c3C=C1CCC[C@@H]2[C@](C)(O)c1csc2ccccc12` (single isomer, unassigned) [Example 32], for which the Ki is over 1150 nM.
For the compound `C[C@]12Cn3cnc(-c4ccc(F)cc4)c3C=C1CCC[C@@H]2C(=O)c1csc2ccccc12` (single isomer, unassigned) [Example 43], the Ki was over 1150 nM.
On to `C[C@]12Cn3cnc(-c4ccc(F)cc4)c3C=C1CCC[C@@H]2C(=O)c1csc2ccccc12` (single isomer, unassigned) [Example 44], for which the Ki was over 1150 nM.
The value for `C[C@]12Cn3cnc(-c4ccc(F)cc4)c3C=C1CCC[C@@H]2[C@](C)(O)c1csc2ccccc12` (single isomer, unassigned) [Example 45] was 73.2 nM; that for `C[C@]12Cn3cnc(-c4ccc(F)cc4)c3C=C1CCC[C@@H]2[C@](C)(O)c1csc2ccccc12` (single isomer, unassigned) [Example 46] was 1.43 nM; that for `CO[C@](C)(c1cccs1)[C@H]1CCCC2=Cc3c(-c4ccc(F)cc4)ncn3C[C@@]21C` [Example 2, (5aR,6S)-1-(4-Fluorophenyl)-6-((S)-1-methoxy-1-(thiophen-2-yl)ethyl)-5a-methyl-5,5a,6,7,8,9-hexahydroimidazo[1,5-b]isoquinoline] was 69.8 nM.
Take `C[C@]12Cn3cnc(-c4ccc(F)cc4)c3C=C1CCC[C@@H]2CO` [Example 4a, ((5aR,6S)-1-(4-Fluorophenyl)-5a-methyl-5,5a,6,7,8,9-hexahydroimidazo[1,5-b]isoquinolin-6-yl)methanol]: the Ki came to 111 nM.
As for `C[C@]12Cn3cnc(-c4ccc(F)cc4)c3C=C1CCC[C@@H]2CNc1nccs1` [Example 4b, N-(((5aR,6S)-1-(4-fluorophenyl)-5a-methyl-5,5a,6,7,8,9-hexahydroimidazo[1,5-b]isoquinolin-6-yl)methyl)thiazol-2-amine], the Ki is 215 nM.
The value for `C[C@]12Cn3cnc(-c4ccc(F)cc4)c3C=C1CCC[C@@H]2CC(=O)Nc1nncs1` [Example 6, 2-((5aR,6R)-1-(4-fluorophenyl)-5a-methyl-5,5a,6,7,8,9-hexahydroimidazo[1,5-b]isoquinolin-6-yl)-N-(1,3,4-thiadiazol-2-yl)acetamide] was 7.13 nM; that for `CC(C)(C)NC(=O)NCC[C@H]1CCCC2=Cc3c(-c4ccc(F)cc4)ncn3C[C@@]21C` [Example 7, 1-tert-Butyl-3-(2-((5aR,6R)-1-(4-fluorophenyl)-5a-methyl-5,5a,6,7,8,9-hexahydroimidazo[1,5-b]isoquinolin-6-yl)ethyl)urea] was 95.7 nM; that for `C[C@]12Cn3cnc(-c4ccc(F)cc4)c3C=C1CCC[C@@H]2[C@](C)(O)c1cccc(S(C)(=O)=O)c1` [Example 8a, (S)-1-((5aR,6S)-1-(4-fluorophenyl)-5a-methyl-5,5a,6,7,8,9-hexahydroimidazo[1,5-b]isoquinolin-6-yl)-1-(3-(methylsulfonyl)phenyl)ethanol] was 2.12 nM.
Turning to `C[C@]12Cn3cnc(-c4ccc(F)cc4)c3C=C1CCC[C@@H]2[C@](C)(O)c1ncccn1` [Example 11, (S)-1-((5aR,6S)-1-(4-Fluorophenyl)-5a-methyl-5,5a,6,7,8,9-hexahydroimidazo[1,5-b]isoquinolin-6-yl)-1-(pyrimidin-2-yl)ethanol], the Ki worked out at 68.2 nM.
For `CC(=O)[C@H]1CCCC2=Cc3c(-c4ccccc4)ncn3C[C@@]21C` [Example 26] the value was over 1150 nM.
The value for `C[C@]12Cn3cnc(-c4ccc(F)cc4)c3C=C1CCC[C@@H]2C(=O)c1ccc(F)cc1` [Example 47] was 878 nM; that for `C[C@]12Cn3cnc(-c4ccc(F)cc4)c3C=C1CCC[C@@H]2[C@@H](O)c1ccc(F)cc1` [Example 49] was 35.3 nM.
For `C[C@]12Cn3cnc(-c4ccc(F)cc4)c3C=C1CCC[C@@H]2[C@H](O)c1ccc(F)cc1` [Example 50] the value was 29.7 nM.
For `C=CC[C@H](O)[C@H]1CCCC2=Cc3c(-c4ccc(F)cc4)ncn3C[C@@]21C` [Example 51], the Ki worked out at 7.38 nM.
Take `C=CC[C@@H](O)[C@H]1CCCC2=Cc3c(-c4ccc(F)cc4)ncn3C[C@@]21C` [Example 52]: the Ki amounted to 8.67 nM.
For `CC(C)C[C@@](C)(O)[C@H]1CCCC2=Cc3c(-c4ccc(F)cc4)ncn3C[C@@]21C` [Example 59] the value was 9.67 nM; for `C[C@]12Cn3cnc(-c4ccc(F)cc4)c3C=C1CCC[C@@H]2[C@](C)(O)C#Cc1ccccc1` [Example 70], 59.9 nM; for `C[C@]12Cn3cnc(-c4ccc(F)cc4)c3C=C1CCC[C@@H]2C(=O)c1ccccc1CN1CCCC1` [Example 72], over 1150 nM.
The value for `Cc1cccc(C)c1C(=O)[C@H]1CCCC2=Cc3c(-c4ccc(F)cc4)ncn3C[C@@]21C` [Example 76] was 207 nM; that for `C[C@]12Cn3cnc(-c4ccc(F)cc4)c3C=C1CCC[C@@H]2[C@](C)(O)c1ccc(C#N)cc1` [Example 79] was 3.42 nM.
The value for `C[C@]12Cn3cnc(-c4ccc(F)cc4)c3C=C1CCC[C@@H]2[C@]1(C)OC(=N)c2ccccc21` [Example 84] was 201 nM; that for `C[C@]12Cn3cnc(-c4ccc(F)cc4)c3C=C1CCC[C@@H]2[C@]1(C)OC(=O)c2ccccc21` [Example 85] was 177 nM; that for `C[C@]12Cn3cnc(-c4ccc(F)cc4)c3C=C1CCC[C@@H]2CC(=O)Nc1nccs1` [Example 86] was 67.1 nM.
`CC(C)(C)OC(=O)NCC[C@H]1CCCC2=Cc3c(-c4ccc(F)cc4)ncn3C[C@@]21C` [Example 88]: the Ki was 11.4 nM.
The value for `C[C@]12Cn3cnc(-c4ccc(F)cc4)c3C=C1CCC[C@@H]2[C@@H](O)C(F)(F)F` [Example 90] was 103 nM; that for `C[C@]12Cn3cnc(-c4ccc(F)cc4)c3C=C1CCC[C@@H]2[C@H](O)C(F)(F)F` [Example 91] was 85.5 nM; that for `C[C@]12Cn3cnc(-c4ccc(F)cc4)c3C=C1CCC[C@@H]2C(=O)C1CCOCC1` [Example 94] was 344 nM.
The value for `CC(C)(O)c1ccc([C@@](C)(O)[C@H]2CCCC3=Cc4c(-c5ccc(F)cc5)ncn4C[C@@]32C)cc1` [Example 98] was 4.45 nM; that for `C=CC1(O)CCCC2=Cc3c(-c4ccc(F)cc4)ncn3CC21C` (centres unmarked) [Example 101, 1-(4-Fluorophenyl)-5a-methyl-6-vinyl-5,5a,6,7,8,9-hexahydroimidazo[1,5-b]isoquinolin-6-ol] was 755 nM.
